For one test, the system named is Porcine Parvovirus (PPV). Kind of test: Inactivation of porcine parvovirus (PPV), TCID50 titer on PT-1 cells. In kind it is cell-based. Conditions: dropped from 7.1 logs, 3 hours, room temperature, dimer 0.1%, detergent = 1% Tween 80, 0.3% TNBP (FIG. 3). How it is done:
PPV is a non-enveloped virus; it is known to be inactivated with ethyleneimine dimer. The ability of ethyleneimine dimer to inactivate PPV in the presence of a solvent-detergent mixture was determined as follows.
A detergent stock solution (1% Tween 80, 0.3% TNBP in 0.1 M MOPS, 50 mM NaCl, pH 7.0) was prepared. A 5% dimer stock solution was prepared with 250 μl of 0.1 M MOPS, NaCl 50 mM, pH 7.0, and 12.5 μl dimer (ethyleneimine dimer, Dalton Chemical Laboratories, Inc., lot number LB-4-69A-03319). In addition, a quenching solution with a sodium thiosulphate concentration of 0.1M in 0.1 M MOPS, pH 7.0, was prepared.
(a) 9 ml 0.1 M MOPS, 50 mM NaCl, pH 7.0 was combined with 200 μl dimer stock solution. 1.0 ml PPV (PPV stock #1 filtered through 0.22μ filter) was added. The concentration of dimer in the resulting solution was 0.1%. The mixture was incubated at room temperature for a given period of time (0-3 hours). After the given time period, 1.85 ml of the solution was removed, and 0.15 ml quenching solution was added. Quenching occurred over a period of 30 minutes at room temperature. The concentration of sodium thiosulphate in the final solution was […].
(b) 9 ml detergent stock solution was combined with 1.0 ml PPV. The mixture was incubated for 0-3 hours at room temperature. A 2 ml aliquot was removed at each time point for assay. […]

Another test deals with bacteriophage MS2. In words: Kinetics of bacteriophage MS2 infectivity inactivation. As to conditions: 1 mM trimer, 23° C., pH 7.13, after 30 minutes of incubation (FIG. 1). The class given is cell-based. How it is done:
Ethyleneimine trimer is known to inactivate the infectivity of bacteriophage MS2. The ability of the trimer to inactivate the infectivity of MS2 in the presence of TNBP and Tween 80 was determined as follows.
A stock of bacteriophage MS2 (ATCC number 15597-B1) was prepared according to conventional procedures (D. L. Rogerson and G. Rushizky, Analytical Biochemistry 67: 675-678 (1975)). Purification was performed by sedimentation of bacteriophage in the presence of 6% polyethylene glycol (PEG 8000, USB) as described in K. Yamamoto and B. Alberts, Virology 40: 734-744 (1970).
Purified phage were suspended in 0.15 M NaCl solution (final bacteriophage stock titer was 5×10^13 pfu/ml) and stored at 4° C. The infectivity (titer) of phage suspension was determined by conventional bilayer technique on LB agar with the F^+ strain of Escherichia coli C-3000 (ATCC number 15597).
Ethyleneimine trimer was prepared as described above. […]
Aliquots of the reaction mixture incubated at 23° C. were taken at five defined time intervals. MS2 infectivity inactivation (log S0/St, where S0 and St are the infectivity (titer) of the suspension before and t min after the start of inactivation) was determined at these five points.

The structures appear in SMILES notation.

Take `NCCN1CC1` [dimer, ethyleneimine dimer]: the “titer of the virus (TCID50) after treatment” value in the test on Porcine Parvovirus (PPV) is 3.2 logs.

Turning to `NCCNCCN1CC1` [trimer, ethyleneimine trimer], in the test with bacteriophage MS2, the “MS2 infectivity inactivation (log S0/St), trimer alone compared with trimer plus solvent-detergent” value was “essentially the same infectivity inactivation”.

The values above are taken from US6774123B1, “Methods and compositions for inactivating viruses” (priority 1998, dated 2004).
